Results as given in patent US20250110108A1 (priority 2022, published 2025).

Settings: in vivo

Substance	concentration range in urine [ng/mL]	median concentration in urine [µg/L]	share of ΣAs in urine
Arsenious acid [As^III]	2.13 to 101	13.8	3.8-36.9%
Arsenic acid [As^V]	0 to 12.1	1.12	–
